Measurements reported in patent publication US7902373B2 (Pfizer Inc, priority 2006, dated 2011).
pIC50: −log10 of the molar value.

Molecular target: human recombinant H-PGDS (Homo sapiens, UniProt O60760)
Assay: Fluorescence intensity h-PGDS TBA enzyme assay
Type: biochemical
Details: Examples up to 622 (and 3a, 3b)

Sequence of human recombinant H-PGDS (O60760 whole entry): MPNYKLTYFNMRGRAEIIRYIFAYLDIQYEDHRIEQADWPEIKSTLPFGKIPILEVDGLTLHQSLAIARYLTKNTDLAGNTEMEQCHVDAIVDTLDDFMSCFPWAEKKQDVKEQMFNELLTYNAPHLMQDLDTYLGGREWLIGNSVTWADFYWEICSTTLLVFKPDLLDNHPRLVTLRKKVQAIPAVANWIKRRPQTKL

`O=C(NC1CCN(Cc2cccc(OC(F)F)c2)CC1)c1ccc(-c2cccc(F)c2)nc1` [Example 315, N-{1-[3-(Difluoromethoxy)benzyl]piperidin-4-yl}-6-(3-fluorophenyl)nicotinamide] and `COc1ccc(F)c(CN2CCC(NC(=O)c3ccc(-c4cccc(F)c4)nc3)CC2)c1` [Example 323, N-[1-(2-Fluoro-5-methoxybenzyl)piperidin-4-yl]-6-(3-fluorophenyl)nicotinamide] are within 0.2 log units of each other in pIC50: 9.26 for the first, 9.21 for the second.

`CCOc1c(CN2CCC(NC(=O)c3ccc(-c4cccc(F)c4)nc3)CC2)cccc1OC` [Example 316, N-[1-(2-Ethoxy-3-methoxybenzyl)piperidin-4-yl]-6-(3-fluorophenyl)nicotinamide] and `COCc1cc(CN2CCC(NC(=O)c3ccc(-c4cccc(F)c4)nc3)CC2)ccc1OC` [Example 327, 6-(3-Fluorophenyl)-N-{1-[4-methoxy-3-(methoxymethyl)benzyl]piperidin-4-yl}nicotinamide] are within 0.2 log units of each other in pIC50: 8.87 for the first, 8.81 for the second.

Compared with `O=C(NC1CCN(Cc2ccc(C(F)(F)F)nc2)CC1)c1ccc(-c2cccc(F)c2)nc1` [Example 317, 6-(3-Fluorophenyl)-N-(1-{[6-(trifluoromethyl)pyridin-3-yl]methyl}piperidin-4-yl)nicotinamide], `O=C(NC1CCN(Cc2cc(F)c(F)c(F)c2)CC1)c1ccc(-c2cccc(F)c2)nc1` [Example 332, 6-(3-fluorophenyl)-N-[1-(345-trifluorobenzyl)piperidin-4-yl]nicotinamide] is 0.24 log units higher in pIC50: 8.68 for the first, 8.92 for the second. The second is the more potent here.

First: Cc1ccc(CN2CCC(NC(=O)c3ccc(-c4cccc(F)c4)nc3)CC2)c(F)c1F [Example 318, N-[1-(2,3-Difluoro-4-methylbenzyl)piperidin-4-yl]-6-(3-fluorophenyl)nicotinamide]
Second: O=C(NC1CCN(Cc2cc(F)cc(F)c2F)CC1)c1ccc(-c2cccc(F)c2)nc1 [Example 331, 6-(3-Fluorophenyl)-N-[1-(2,3,5-trifluorobenzyl)piperidin-4-yl]nicotinamide]
The pIC50 of the first is 0.36 log units higher: 8.93 for the first, 8.57 for the second. The first is the more potent here.

`Cc1nn(C)c(Cl)c1CN1CCC(NC(=O)c2ccc(-c3cccc(F)c3)nc2)CC1` [Example 319, N-{1-[(5-Chloro-1,3-dimethyl-1H-pyrazol-4-yl)methyl]piperidin-4-yl}-6-(3-fluorophenyl)nicotinamide] and `Cc1nn(C)cc1CN1CCC(NC(=O)c2ccc(-c3cccc(F)c3)nc2)CC1` [Example 328, N-{1-[(1,3-Dimethyl-1H-pyrazol-4-yl)methyl]piperidin-4-yl}-6-(3-fluorophenyl)nicotinamide] are within 0.2 log units of each other in pIC50: 9.42 for the first, 9.25 for the second.

Going from `O=C(NC1CCN(Cc2c[nH]c(-c3ccccc3)n2)CC1)c1ccc(-c2cccc(F)c2)nc1` [Example 320, 6-(3-Fluorophenyl)-N-{1-[(2-phenyl-1H-imidazol-4-yl)methyl]piperidin-4-yl}nicotinamide] to `O=C(NC1CCN(Cc2nc3ccccc3[nH]2)CC1)c1ccc(-c2cccc(F)c2)nc1` [Example 337, N-[1-(1H-Benzimidazol-2-ylmethyl)piperidin-4-yl]-6-(3-fluorophenyl)nicotinamide], the pIC50 rises from 8.63 to 8.85 (0.22 log units). The second is the more potent here.

Going from `Cn1cc(Br)c(CN2CCC(NC(=O)c3ccc(-c4cccc(F)c4)nc3)CC2)n1` [Example 321, N-{1-[(4-Bromo-1-methyl-1H-pyrazol-3-yl)methyl]piperidin-4-yl}-6-(3-fluorophenyl)nicotinamide] to `CCn1ncc(CN2CCC(NC(=O)c3ccc(-c4cccc(F)c4)nc3)CC2)c1C` [Example 329, N-{1-[(1-Ethyl-5-methyl-1H-pyrazol-4-yl)methyl]piperidin-4-yl}-6-(3-fluorophenyl)nicotinamide], the pIC50 falls from 9.44 to 8.71 (0.73 log units).

`COc1ccc(CCCN2CCC(NC(=O)c3ccc(-c4cccc(F)c4)nc3)CC2)cc1` [Example 322, 6-(3-Fluorophenyl)-N-{1-[3-(4-methoxyphenyl)propyl]piperidin-4-yl}nicotinamide] and `COc1ccc(CN2CCC(NC(=O)c3ccc(-c4cccc(F)c4)nc3)CC2)c(F)c1` [Example 324, N-[1-(2-Fluoro-4-methoxybenzyl)piperidin-4-yl]-6-(3-fluorophenyl)nicotinamide] are within 0.2 log units of each other in pIC50: 9.13 for the first, 9.27 for the second.

Going from `CCCCCN1CCC(NC(=O)c2ccc(-c3cccc(F)c3)nc2)CC1` [Example 325, 6-(3-Fluorophenyl)-N-(1-pentylpiperidin-4-yl)nicotinamide] to `CC(CCCC(C)(C)O)CCN1CCC(NC(=O)c2ccc(-c3cccc(F)c3)nc2)CC1` (centres unmarked) [Example 336, 6-(3-Fluorophenyl)-N-[1-(7-hydroxy-3,7-dimethyloctyl)piperidin-4-yl]nicotinamide], the pIC50 rises from 8.40 to 8.74 (0.34 log units). The second is the more potent here.

Going from `CC(C)Oc1ccccc1CN1CCC(NC(=O)c2ccc(-c3cccc(F)c3)nc2)CC1` [Example 326, 6-(3-Fluorophenyl)-N-[1-(2-isopropoxybenzyl)piperidin-4-yl]nicotinamide] to `O=C(NC1CCN(Cc2ccccc2-c2cncnc2)CC1)c1ccc(-c2cccc(F)c2)nc1` [Example 342, 6-(3-Fluorophenyl)-N-[1-(2-pyrimidin-5-ylbenzyl)piperidin-4-yl]nicotinamide], the pIC50 rises from 8.61 to 9.55 (0.94 log units). The second is the more potent here.

Compared with `O=C(NC1CCN(Cc2ccc(-c3ncccn3)cc2)CC1)c1ccc(-c2cccc(F)c2)nc1` [Example 330, 6-(3-Fluorophenyl)-N-[1-(4-pyrimidin-2-ylbenzyl)piperidin-4-yl]nicotinamide], `O=C(NC1CCN(CC2=Cc3ccccc3OC2)CC1)c1ccc(-c2cccc(F)c2)nc1` [Example 341, N-[1-(2H-Chromen-3-ylmethyl)piperidin-4-yl]-6-(3-fluorophenyl)nicotinamide] is 0.54 log units higher in pIC50: 8.77 for the first, 9.31 for the second. The second is the more potent here.

Compared with `CC(C)(C)OC(=O)N1CCCC(CN2CCC(NC(=O)c3ccc(-c4cccc(F)c4)nc3)CC2)C1` (centres unmarked) [Example 333, tert-Butyl 3-{[4-({[6-(3-fluorophenyl)pyridin-3-yl]carbonyl}amino)piperidin-1-yl]methyl}piperidine-1-carboxylate], `CC(C)(C)OC(=O)NC1(CN2CCC(NC(=O)c3ccc(-c4cccc(F)c4)nc3)CC2)CCC1` [Example 334, tert-Butyl (1-{[4-({[6-(3-fluorophenyl)pyridin-3-yl]carbonyl}amino)piperidin-1-yl]methyl}cyclobutyl)carbamate] is 0.42 log units lower in pIC50: 8.98 for the first, 8.56 for the second. The first is the more potent here.

`Cc1nn(-c2ccccc2)c(C)c1CN1CCC(NC(=O)c2ccc(-c3cccc(F)c3)nc2)CC1` [Example 335, N-{1-[(3,5-Dimethyl-1-phenyl-1H-pyrazol-4-yl)methyl]piperidin-4-yl}-6-(3-fluorophenyl)nicotinamide] and `COC(=O)Cn1cc(CN2CCC(NC(=O)c3ccc(-c4cccc(F)c4)nc3)CC2)c2ccccc21` [Example 339, Methyl (3-{[4-({[6-(3-fluorophenyl)pyridin-3-yl]carbonyl}amino)piperidin-1-yl]methyl}-1H-indol-1-yl)acetate] are within 0.2 log units of each other in pIC50: 9.11 for the first, 8.93 for the second.

Compared with `CCOc1ccc2nc(CN3CCC(NC(=O)c4ccc(-c5cccc(F)c5)nc4)CC3)ccc2c1` [Example 338], `O=C(NC1CCN(Cc2cccn3cc(Br)nc23)CC1)c1ccc(-c2cccc(F)c2)nc1` [Example 343, N-{1-[(2-Bromoimidazo[1,2-a]pyridin-8-yl)methyl]piperidin-4-yl}-6-(3-fluorophenyl)nicotinamide] is 1.52 log units higher in pIC50: 7.20 for the first, 8.72 for the second. The second is the more potent here.

`O=C(NC1CCN(Cc2nc3c(s2)CCCC3)CC1)c1ccc(-c2cccc(F)c2)nc1` [Example 340, 6-(3-Fluorophenyl)-N-[1-(4,5,6,7-tetrahydro-1,3-benzothiazol-2-ylmethyl)piperidin-4-yl]nicotinamide] gave a pIC50 of 8.93.
